Here are results for four compounds from patent US5241059A, “Cyclodextrin derivatives” (Toppan Printing Co., Ltd., priority 1990, dated 1993).

For data set [1] the following is noted: cited from earlier work.

Like-named read-outs stand apart in the source and are kept apart here. Some results are limits rather than exact numbers.

Consider `O=C(O)COCC1OC2OC3C(COCC(=O)O)OC(OC4C(COCC(=O)O)OC(OC5C(COCC(=O)O)OC(OC6C(COCC(=O)O)OC(OC7C(COCC(=O)O)OC(OC8C(COCC(=O)O)OC(OC1C(O)C2O)C(O)C8O)C(O)C7O)C(O)C6O)C(O)C5O)C(O)C4O)C(O)C3O` (stereo not drawn) [Heptacarboxylic acid β-CD], for which the “Water Solubility” value (water) is given as more than 300 g/100 ml H2 O.
As for Hydroxypropyl β-CD, the “Water Solubility” value in data set [1] is reported as 115 g/100 ml H2 O.
On to `C[N+](C)(C)CC1OC2OC3C(CO)OC(OC4C(CO)OC(OC5C(CO)OC(OC6C(CO)OC(OC7C(CO)OC(OC8C(CO)OC(OC1C(O)C2O)C(O)C8O)C(O)C7O)C(O)C6O)C(O)C5O)C(O)C4O)C(O)C3O.[Cl-]` (stereo not drawn) [Monotrimethylammonium (chloride) β-CD], for which the “Water Solubility” value (25° C.) is listed as more than 200 g/100 ml H2 O.
In the case of “mono-6-dihydroxyphosphonyl-6-deoxy β-CD [Monophosphoric acid β-CD]”, the “Water Solubility” value (water) was more than 250 g/100 ml H2 O.
